As usually defined, the pKi is the negative decadic logarithm of the Ki, by convention in mol/L.

pKi: −log10 of the molar value.

T1 sequence (P50406 whole entry): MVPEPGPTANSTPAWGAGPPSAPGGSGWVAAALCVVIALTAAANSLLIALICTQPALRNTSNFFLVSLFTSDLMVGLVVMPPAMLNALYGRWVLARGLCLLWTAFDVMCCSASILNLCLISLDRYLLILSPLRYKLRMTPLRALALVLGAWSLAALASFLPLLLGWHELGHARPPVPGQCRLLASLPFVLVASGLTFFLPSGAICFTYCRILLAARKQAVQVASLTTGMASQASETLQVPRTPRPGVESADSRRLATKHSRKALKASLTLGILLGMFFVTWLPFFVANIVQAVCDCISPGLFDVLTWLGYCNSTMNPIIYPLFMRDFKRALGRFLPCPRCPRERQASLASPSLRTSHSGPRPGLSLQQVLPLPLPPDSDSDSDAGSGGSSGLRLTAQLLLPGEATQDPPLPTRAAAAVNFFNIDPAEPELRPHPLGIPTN

One assay concerns the target T1, human 5-HT6 receptor (Homo sapiens, UniProt P50406).
T1 construct: host or cells: CHO-K1 cells, stably transfected; membranes prepared in house
Kind of assay: Human 5-HT6 Receptor Binding Assay ([3H]LSD displacement, scintillation beads). To be noted: membranes of CHO-K1 cells with recombinant human 5-HT6, 4 nM [3H]LSD; Table 1, class symbols; read-out: h5-HT6 (Ki). How it is done: Human 5-HT6 Receptor Binding Assay
Membranes were prepared from CHO—K1 cells stably transfected with the human 5-HT6 receptor (Euroscreen; ES-316-C). The cells were grown in Gibco Advanced DMEM-F12 (Cat#12634010) containing 2% dialyzed FBS (Hyclone Cat#SH30079.03). The cells were harvested in phosphate buffered saline (PBS) containing 0.1 mM EDTA and pelleted by centrifugation (1000×g), the supernatant was discarded and the pellets were stored at −80° C. prior to membrane preparation. Membranes were prepared as previously described (J Bio Chem. 1992, 267 (14) 9844-51). Briefly, frozen cell pellet was resuspended in a lysis buffer containing 5 mM Tris-HCl (pH 7.5), 5 mM EDTA and 1 complete EDTA-free protease inhibitor tablet (Roche Applied Science, Indianapolis, Ind.) per 50 mL buffer, and homogenized with a tissue homogenizer. The cell lysate was then centrifuged at 40,000×g for 30 min at 4° C. to collect the membranes. The membrane pellets were washed in membrane buffer (50 mM Tris-HCl (pH 7.5), 0.6 mM EDTA, 5 mM MgCl2, 1 complete EDTA-free protease inhibitor tablet per 50 mL buffer) using a tissue homogenizer. The membranes were centrifuged at 40,000×g for 30 min at 4° C. and the pellets were resuspended in membrane buffer containing 250 mM sucrose, and protein concentration was determined using the Coomassie Plus kit (Pierce Biotechnology, Rockford, Ill.).
Membranes prepared from cells expressing recombinant human 5-HT6 receptor (h5-HT6) were resuspended in assay buffer containing 50 mM Tris HCl, (pH7.4), 4 mM CaCl2, 10 μg/mL saponin, and 0.1% (w/v) ascorbic acid. Membranes were preincubated using 1.75 μg membrane protein and 0.25 mg FlashBlue scintillation beads (PerkinElmer catalogue #FB001) per well at 4° for 30 min. […] Test compounds or assay controls for total and non-specific binding were diluted in DMSO as 100× solutions and serially diluted by half log concentrations on a Perkin Elmer JANUS Automated Workstation. Serotonin (10 μM final concentration) was used to determine non-specific binding in the assay. Plates were read using the Microbeta Trilux 1450 LSC and luminescence counter. Data were analyzed by nonlinear […] using the dose-response equation (variable slope) to calculate IC50 in XLfit4 (ID Business Solutions Inc.): y=(Bottom+((Top−Bottom)/(1+((IC50/x)^Hill slope))))
Ki value was then calculated according to the Cheng-Prusoff method using the equation below (Cheng and Prusoff, 1973): Ki,app=IC50/(1+[radioligand]/Kd))
As to “1,2,3,4,4a,9a-hexahydro[1]benzofuro[2,3-c]pyridin-7-yl naphthalene-2-sulfonate [Example 660]”, the negative-log Ki (pKi) was over 6.30. As to “7-[(3,5-Difluorophenyl)sulfonyl]-2′,3,3′,4,4a,5′,6′,9a-octahydro-2H-spiro[1-benzofuro[2,3-c]pyridine-1,4′-pyran]hydrochloride [Example 623]”, the pKi was under 6.00. Regarding `COc1ccccc1S(=O)(=O)c1ccc2c(c1)OC1CNCCC21C` (racemic) [Example 3, 7-[(2-methoxyphenyl)sulfonyl]-4a-methyl-1,2,3,4,4a,9a-hexahydro[1]benzofuro[2,3-c]pyridine], the pKi was over 6.30. `COc1cccc(S(=O)(=O)c2ccc3c(c2)OC2CNCCC32C)c1` (racemic) [Example 4, 7-[(3-methoxyphenyl)sulfonyl]-4a-methyl-1,2,3,4,4a,9a-hexahydro[1]benzofuro[2,3-c]pyridine]: the pKi is over 6.30.

As to `COc1ccc(S(=O)(=O)c2ccc3c(c2)OC2CNCCC32C)cc1` (racemic) [Example 5, 7-[(4-methoxyphenyl)sulfonyl]-4a-methyl-1,2,3,4,4a,9a-hexahydro[1]benzofuro[2,3-c]pyridine], the pKi was 6.00 to 6.30.

On to `Cc1cccc(S(=O)(=O)c2ccc3c(c2)OC2CNCCC32C)n1` (racemic) [Example 6, 4a-methyl-7-[(6-methylpyridin-2-yl)sulfonyl]-1,2,3,4,4a,9a-hexahydro[1]benzofuro[2,3-c]pyridine], for which the negative-log Ki (pKi) was under 6.00. For `Cc1ccnc(S(=O)(=O)c2ccc3c(c2)OC2CNCCC32C)n1` (racemic) [Example 7, 4a-methyl-7-[(4-methylpyrimidin-2-yl)sulfonyl]-1,2,3,4,4a,9a-hexahydro[1]benzofuro[2,3-c]pyridine], the pKi was under 6.00.

As to `CC12CCNCC1Oc1cc(S(=O)(=O)c3ccccn3)ccc12` (racemic) [Example 8, 4a-methyl-7-(pyridin-2-ylsulfonyl)-1,2,3,4,4a,9a-hexahydro[1]benzofuro[2,3-c]pyridine], the pKi was under 6.00. Consider `CC12CCNCC1Oc1cc(S(=O)(=O)c3ncccn3)ccc12` (racemic) [Example 9, 4a-methyl-7-(pyrimidin-2-ylsulfonyl)-1,2,3,4,4a,9a-hexahydro[1]benzofuro[2,3-c]pyridine], for which the pKi is under 6.00.

As for `CCOc1cccc(S(=O)(=O)c2ccc3c(c2)OC2CNCCC32C)c1` (racemic) [Example 10, 7-[(3-ethoxyphenyl)sulfonyl]-4a-methyl-1,2,3,4,4a,9a-hexahydro[1]benzofuro[2,3-c]pyridine], the negative-log Ki (pKi) was over 6.30. With `CC12CCNCC1Oc1cc(S(=O)(=O)c3cccc(F)c3)ccc12` (racemic) [Example 11, 7-[(3-fluorophenyl)sulfonyl]-4a-methyl-1,2,3,4,4a,9a-hexahydro[1]benzofuro[2,3-c]pyridine], the negative logarithm of the Ki (pKi) was over 6.30. On to `CC(C)Oc1cccc(S(=O)(=O)c2ccc3c(c2)OC2CNCCC32C)c1` (racemic) [Example 12, 4a-methyl-7-{[3-(propan-2-yloxy)phenyl]sulfonyl}-1,2,3,4,4a,9a-hexahydro[1]benzofuro[2,3-c]pyridine], for which the pKi was over 6.30. As for `CC12CCNCC1Oc1ccc(S(=O)(=O)c3ccncc3)cc12` (racemic) [Example 13, 4a-methyl-6-(pyridin-4-ylsulfonyl)-1,2,3,4,4a,9a-hexahydro[1]benzofuro[2,3-c]pyridine], the pKi was under 6.00. As for `CC12CCNCC1Oc1ccc(S(=O)(=O)c3cc[n+]([O-])cc3)cc12` (racemic) [Example 14, 4a-methyl-6-[(1-oxidopyridin-4-yl)sulfonyl]-1,2,3,4,4a,9a-hexahydro[1]benzofuro[2,3-c]pyridine], the negative-log Ki (pKi) is under 6.00. As for `CC(C)Oc1cccc(S(=O)(=O)c2ccc3c4c(oc3c2)C2(CCCOC2)NCC4)c1` (racemic) [Example 23, 7-{[3-(propan-2-yloxy)phenyl]sulfonyl}-3,4,5′,6′-tetrahydro-2H,4′H-spiro[1-benzofuro[2,3-c]pyridine-1,3′-pyran]], the pKi is over 6.30.

With `CCC1(C)NCCc2c1oc1cc(S(=O)(=O)c3cccc(F)c3)ccc21` (racemic) [Example 27, 1-ethyl-7-[(3-fluorophenyl)sulfonyl]-1-methyl-1,2,3,4-tetrahydro[1]benzofuro[2,3-c]pyridine], the negative logarithm of the Ki (pKi) is over 6.30. On the same count and under the same terms, under `CC1(C2CC2)NCCc2c1oc1cc(S(=O)(=O)c3cccc(F)c3)ccc21` (racemic) [Example 29, 1-cyclopropyl-7-[(3-fluorophenyl)sulfonyl]-1-methyl-1,2,3,4-tetrahydro[1]benzofuro[2,3-c]pyridine] stands over 6.30; under `O=S(=O)(c1cccc(F)c1)c1ccc2c3c(oc2c1)C1(CCOC1)NCC3` (racemic) [Example 30, 7-[(3-fluorophenyl)sulfonyl]-3,4,4′,5′-tetrahydro-2H-spiro[1-benzofuro[2,3-c]pyridine-1,3′-furan]], over 6.30; under `CCOCC1NCCc2c1oc1cc(S(=O)(=O)c3cccc(F)c3)ccc21` (racemic) [Example 33, 1-(ethoxymethyl)-7-[(3-fluorophenyl)sulfonyl]-1,2,3,4-tetrahydro[1]benzofuro[2,3-c]pyridine], over 6.30. Turning to `CC(C)CC1(C)NCCc2c1oc1cc(S(=O)(=O)c3cccc(F)c3)ccc21` (racemic) [Example 36, 7-[(3-fluorophenyl)sulfonyl]-1-methyl-1-(2-methylpropyl)-1,2,3,4-tetrahydro[1]benzofuro[2,3-c]pyridine], the negative logarithm of the Ki (pKi) was over 6.30.

In the case of `CC1(C(F)(F)F)NCCc2c1oc1cc(S(=O)(=O)c3cccc(F)c3)ccc21` (racemic) [Example 37, 7-[(3-fluorophenyl)sulfonyl]-1-methyl-1-(trifluoromethyl)-1,2,3,4-tetrahydro[1]benzofuro[2,3-c]pyridine], the pKi is over 6.30. Turning to `CN(C)C(=O)CC1(C)NCCc2c1oc1cc(S(=O)(=O)c3cccc(F)c3)ccc21` (racemic) [Example 40, 2-{7-[(3-fluorophenyl)sulfonyl]-1-methyl-1,2,3,4-tetrahydro[1]benzofuro[2,3-c]pyridin-1-yl}-N,N-dimethylacetamide], the negative logarithm of the Ki (pKi) was over 6.30. For `CC1(C)CNC(C2CCOCC2)c2oc3cc(S(=O)(=O)c4cccc(F)c4)ccc3c21` (racemic) [Example 45, 7-[(3-fluorophenyl)sulfonyl]-4,4-dimethyl-1-(tetrahydro-2H-pyran-4-yl)-1,2,3,4-tetrahydro[1]benzofuro[2,3-c]pyridine], the pKi was over 6.30. Take `CC1(C)CNC2(CCOC2)c2oc3cc(S(=O)(=O)c4cccc(F)c4)ccc3c21` (racemic) [Example 46, 7-[(3-fluorophenyl)sulfonyl]-4,4-dimethyl-3,4,4′,5′-tetrahydro-2H-spiro[1-benzofuro[2,3-c]pyridine-1,3′-furan]]: the pKi is over 6.30. Take `CC1(C)CNC2(CCOCC2)c2oc3cc([S+]([O-])c4cccc(F)c4)ccc3c21` (racemic) [Example 47, 7-[(3-fluorophenyl)sulfinyl]-4,4-dimethyl-2′,3,3′,4,5′,6′-hexahydro-2H-spiro[1-benzofuro[2,3-c]pyridine-1,4′-pyran]]: the pKi was over 6.30. Regarding `COCC1(C)NCCc2c1oc1cc(S(=O)(=O)c3cccc(F)c3)ccc21` (racemic) [Example 49, 7-[(3-fluorophenyl)sulfonyl]-1-(methoxymethyl)-1-methyl-1,2,3,4-tetrahydro[1]benzofuro[2,3-c]pyridine], the pKi is over 6.30. Same read-out and setting: under `CC(=O)NCC1NCCc2c1oc1cc(S(=O)(=O)c3cccc(F)c3)ccc21` (racemic) [Example 535, N-({7-[(3-fluorophenyl)sulfonyl]-1,2,3,4-tetrahydro[1]benzofuro[2,3-c]pyridin-1-yl}methyl)acetamide] stands over 6.30; under `CC(=O)NCCC1NCCc2c1oc1cc(S(=O)(=O)c3cccc(F)c3)ccc21` (racemic) [Example 536, N-(2-{7-[(3-fluorophenyl)sulfonyl]-1,2,3,4-tetrahydro[1]benzofuro[2,3-c]pyridin-1-yl}ethyl)acetamide], over 6.30; under `CC(=O)N(C)CC1NCCc2c1oc1cc(S(=O)(=O)c3cccc(F)c3)ccc21` (racemic) [Example 537, N-({7-[(3-fluorophenyl)sulfonyl]-1,2,3,4-tetrahydro[1]benzofuro[2,3-c]pyridin-1-yl}methyl)-N-methylacetamide], over 6.30.

Still in this assay, the particulars now being: membranes of CHO-K1 cells with recombinant human 5-HT6, 4 nM [3H]LSD; specific data; read-out: h5-HT6 (Ki).
On to “1,2,3,4,4a,9a-hexahydro[1]benzofuro[2,3-c]pyridin-7-yl naphthalene-2-sulfonate [Example 660]”, for which the pKi was 7.94.

These data come from patent US8765779B2, “Tricyclic derivatives and their pharmaceutical use and compositions” (Cephalon, Inc., priority 2009, dated 2014).
